Data: patent US20060046966A1, “Antipicornaviral compounds and compositions, their pharmaceutical uses, and materials for their synthesis” (Agouron Pharmaceuticals, Inc., priority 1998, published 2006)
Where two headings read alike, the source gives them in different places.

Experiments:
[1] = target: T1, rhinovirus 3C protease from HRV serotype-14 (Human rhinovirus 14, UniProt P03303); experiment: Inhibition of rhinovirus 3C protease (FRET assay), serotype 14; assay type: biochemical; conditions: HRV serotype-14 3C protease; progress curves in enzyme start experiments; read-out: Protease Inhibition kobs/[I]
T1 construct: Recombinant rhinovirus 3C proteases; made in house
Experimental: (§1) Stock solutions (50 mM, in DMSO) of various compounds were prepared; dilutions were in the same solvent. Recombinant rhinovirus 3C proteases (see Birch et al., “Purification of recombinant human rhinovirus 14 3C protease expressed in Escherichia coli,” Protein Expr. Pur. 1995, 6(5), 609-618) from serotypes 14, 16, and 2 were prepared by the following standard chromatographic procedures: (1) ion exchange using Q Sepharose Fast Flow from Pharmacia; (2) affinity chromatography using Affi-Gel Blue from Biorad; and (3) sizing using Sephadex G-100 from Pharmacia. Each assay sample contained 2% DMSO, 50 mM tris pH 7.6, 1 mM EDTA, a test compound at the indicated concentration, approximately 1 μM substrate, and 50-100 nM protease. The kobs/I values were obtained from reactions initiated by addition of enzyme rather than substrate. RVP activity was measured in the fluorescence resonance energy transfer assay. The substrate was (N-terminal) DABCYL-(Gly-Arg-Ala-Val-Phe-Gln-Gly-Pro-Val-Gly)-EDANS. In the uncleaved peptide, the EDANS fluorescence was quenched by the proximal DABCYL moiety. When the peptide was cleaved, the quenching was relieved, and activity was measured as an increase in fluorescence signal. In Table 1, all data are for rhinovirus 3C protease from HRV serotype-14 (produced from the infectious cDNA clone constructed by Dr. Robert Rueckert, Institute for Molecular Virology, University of Wisconsin, Madison, Wis.). […] The data in the column designated kobs/[I] were measured from progress curves in enzyme start experiments.

HRV (16) = experiment: Antirhinoviral H1-HeLa cell culture assay, HRV serotype 16; assay type: cell-based; conditions: Human rhinovirus sp., H1-HeLa cells, XTT
Experimental: (§2) In this cell protection assay, the ability of compounds to protect cells against HRV infection was measured by the XTT dye reduction method, which is described in Weislow et al., J. Natl. Cancer Inst. 1989, vol. 81, 577-586.
(§3) H1-HeLa cells were infected with HRV-14 at a multiplicity of infection (m.o.i.) of 0.13 (virus particles/cell) or mock-infected with medium only. Infected or mock-infected cells were resuspended at 8×10^5 cells per mL, and incubated with appropriate concentrations of the compounds to be tested. Two days later, XTT/PMS was added to test plates and the amount of formazan produced was quantified spectrophotometrically at 450/650 nm. The EC50 value was calculated as the concentration of compound that increased the percentage of formazan production in compound-treated, virus-infected cells to 50% of that produced by compound-free, mock-infected cells. The 50% cytotoxic dose (CC50) was calculated as the concentration of compound that decreased the percentage of formazan produced in compound-treated, mock-infected cells to 50% of that produced by compound-free, mock-infected cells. The therapeutic index (TI) was calculated by dividing the CC50 value by the EC50 value.
(§4) All strains of human rhinovirus (HRV) for use in this assay were purchased from American Type Culture Collection (ATCC), except for HRV serotype-14 (produced from the infectious cDNA clone constructed by Dr. Robert Rueckert, Institute for Molecular Virology, University of Wisconsin, Madison, Wis.). HRV stocks were propagated and viral assays were performed in H1-HeLa cells (ATCC). Cells were grown in minimal essential medium with 10% fetal bovine serum, available from Life Technologies (Gaithersburg, Md.).
The compounds were tested against control compounds WIN 51711, WIN 52084, and WIN 54954 (obtained from Sterling-Winthrop Pharmaceuticals), Pirodavir (obtained from Janssen Pharmaceuticals), and Pleconaril (prepared according to the method described in Diana et al., J. Med. Chem 1995, vol. 38, 1355). […]

[2] = target: T2, rhinovirus 3C protease, serotype 16 (Human rhinovirus 16, UniProt Q82122); experiment: Inhibition of rhinovirus 3C protease (FRET assay), serotype 16; assay type: biochemical; conditions: Rhinovirus Serotype (16) 3C protease; read-out: kobs/I
T2 construct: Recombinant rhinovirus 3C proteases; made in house
Experimental: Stock solutions (50 mM, in DMSO) of various compounds were prepared; dilutions were in the same solvent. Recombinant rhinovirus 3C proteases (see Birch et al., “Purification of recombinant human rhinovirus 14 3C protease expressed in Escherichia coli,” Protein Expr. Pur. 1995, 6(5), 609-618) from serotypes 14, 16, and 2 were prepared by the following standard chromatographic procedures: (1) ion exchange using Q Sepharose Fast Flow from Pharmacia; (2) affinity chromatography using Affi-Gel Blue from Biorad; and (3) sizing using Sephadex G-100 from Pharmacia. Each assay sample contained 2% DMSO, 50 mM tris pH 7.6, 1 mM EDTA, a test compound at the indicated concentration, approximately 1 μM substrate, and 50-100 nM protease. The kobs/I values were obtained from reactions initiated by addition of enzyme rather than substrate. RVP activity was measured in the fluorescence resonance energy transfer assay. The substrate was (N-terminal) DABCYL-(Gly-Arg-Ala-Val-Phe-Gln-Gly-Pro-Val-Gly)-EDANS. In the uncleaved peptide, the EDANS fluorescence was quenched by the proximal DABCYL moiety. When the peptide was cleaved, the quenching was relieved, and activity was measured as an increase in fluorescence signal. […] The data in the column designated kobs/[I] were measured from progress curves in enzyme start experiments.

HRV (10) = experiment: Antirhinoviral H1-HeLa cell culture assay, HRV serotype 10; assay type: cell-based, human rhinovirus; conditions: Human rhinovirus sp., H1-HeLa, H1-HeLa cells, XTT
Experimental: as §2, §3, §4
(§5) The compounds were tested against control compounds WIN 51711, WIN 52084, and WIN 54954 (obtained from Sterling-Winthrop Pharmaceuticals), Pirodavir (obtained from Janssen Pharmaceuticals), and Pleconaril (prepared according to the method described in Diana et al., J. Med. Chem 1995, vol. 38, 1355). Antiviral data obtained for the test compounds are shown in Tables 1 and 3, where all data are for HRV serotype-14 unless otherwise noted in parentheses.

[3] = target: T3, rhinovirus 3C protease, serotype 89 (Human rhinovirus A serotype 89, UniProt P07210); experiment: Inhibition of rhinovirus 3C protease (FRET assay), serotype 89; assay type: biochemical; conditions: Rhinovirus Serotype (89) 3C protease; read-out: kobs/I
T3 construct: Recombinant rhinovirus 3C proteases

HRV (89) = experiment: Antirhinoviral H1-HeLa cell culture assay, HRV serotype 89; assay type: cell-based, human rhinovirus; conditions: Human rhinovirus sp., H1-HeLa cells, XTT
Experimental: as §2, §3, §4, §5

HRV-14 = experiment: Antirhinoviral H1-HeLa cell culture assay, HRV-14; assay type: cell-based, human rhinovirus; conditions: Rhinovirus B, HRV14, H1-HeLa, HRV serotype-14, H1-HeLa cells
Experimental: as §2, §3, §4, §5

[4] = target: T4, rhinovirus 3C protease, serotype 2 (Human rhinovirus 2, UniProt P04936); experiment: Inhibition of rhinovirus 3C protease (FRET assay), serotype 2; assay type: biochemical; conditions: Rhinovirus Serotype (2) 3C protease; read-out: kobs/I
T4 construct: Recombinant rhinovirus 3C proteases; made in house
Experimental: as §1

[5] = Table 1, XTT dye reduction, read-out: Cell Protection EC50

T1 sequence (P03303 1538-1719): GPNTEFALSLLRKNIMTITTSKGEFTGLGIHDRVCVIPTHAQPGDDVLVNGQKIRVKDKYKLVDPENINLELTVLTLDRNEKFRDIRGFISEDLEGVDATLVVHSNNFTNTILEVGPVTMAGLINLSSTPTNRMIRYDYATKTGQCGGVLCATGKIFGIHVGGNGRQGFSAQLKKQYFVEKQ
T4 sequence (P04936 1508-1690): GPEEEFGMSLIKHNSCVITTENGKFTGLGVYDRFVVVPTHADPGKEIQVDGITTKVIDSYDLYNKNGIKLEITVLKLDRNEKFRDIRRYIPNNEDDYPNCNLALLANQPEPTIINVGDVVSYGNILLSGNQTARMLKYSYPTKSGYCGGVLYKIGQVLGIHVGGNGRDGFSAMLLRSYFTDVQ
T2 sequence (Q82122 1511-1693): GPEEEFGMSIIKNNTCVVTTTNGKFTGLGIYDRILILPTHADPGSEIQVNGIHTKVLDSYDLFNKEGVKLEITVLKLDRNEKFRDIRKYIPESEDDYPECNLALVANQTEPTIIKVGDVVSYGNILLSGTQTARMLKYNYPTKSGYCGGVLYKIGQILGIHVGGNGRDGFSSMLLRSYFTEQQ
T3 sequence (P07210 1522-1704): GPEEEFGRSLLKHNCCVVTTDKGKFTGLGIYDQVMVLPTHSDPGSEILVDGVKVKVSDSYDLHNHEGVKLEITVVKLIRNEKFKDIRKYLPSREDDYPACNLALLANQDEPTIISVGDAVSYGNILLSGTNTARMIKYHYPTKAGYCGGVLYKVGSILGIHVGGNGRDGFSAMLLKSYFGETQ

Row | SMILES | kinact/KI [1] [M⁻¹ s⁻¹] | EC50 (HRV (16)) [nM] | kinact/KI [2] [M⁻¹ s⁻¹] | EC50 (HRV (10)) [nM] | kinact/KI [3] [M⁻¹ s⁻¹] | EC50 (HRV (89)) [nM] | EC50 (HRV-14; [5]) [nM] | EC50 (HRV-14; Table 3, XTT, read-out: EC50) [nM] | kinact/KI [4] [M⁻¹ s⁻¹] | melting point
1 | CCOC(=O)/C=C/[C@H](CCC(N)=O)NC(=O)[C@H](Cc1ccccc1)NC(=O)[C@H](CC(C)C)NC(=O)OCc1ccccc1 [Comparison Compound #2, Ethyl-3-(Cbz-L-Leu-L-Phe-L-Gln)-E-Propenoate, reference compound] | 25000 | 2300 | 6500 | 600 | 3400 | 6300 | 610 | 610 | 2000 | –
2 | CCOC(=O)/C=C/[C@H](CCC(N)=O)NC(=O)[C@H](Cc1ccccc1)NC(=O)[C@@H](NC(=O)OCc1ccccc1)C(C)C [Comparison Compound #3, Ethyl-3-(Cbz-L-Val-L-Phe-L-Gln)-E-Propenoate] | 62500 | – | 16900 | – | – | – | 380 | 380 | 8000 | 240 °C (dec.)
